Experimental data reported in patent publication US8008337B2, “Azabicyclo[3.2.0] hept-3-yl compounds, a process for their preparation and pharmaceutical compositions containing them” (Les Laboratoires Servier, priority 2009, dated 2011).

Legend:
Format in all cases: in vivo
awake Wistar rat = assay: Electroencephalogram recordings in the awake Wistar rat; settings: 3 mg/kg IP, cortical EEG
Procedure: Electrodes are chronically implanted in adult male Wistar rats, being located at the surface of the frontal and parietal cortex. Cortical electroencephalogram (EEG) recordings are made in the rats placed in cages in a sound-proofed room. The compounds and carriers are administered in randomised manner by the intraperitoneal route at 10 o'clock on the same days with a minimum of 3 days between each administration, allowing each rat to be used as its own control. The absolute power of the slow delta activities (1-4 Hz), which predominate during slow sleep and disappear during wakefulness and paradoxical sleep, is averaged over successive periods of 30 minutes. Over 30 minutes, high and low values for the power of the slow delta activities are signs of […], respectively.

Wistar rat [1] = assay: Interaction with barbital in the Wistar rat; settings: 10 mg/kg PO 30 minutes before barbital 170 mg/kg IP, sleep measured for 4 hours
Procedure: The objective of this test is to determine the anti-sedative, awakening and/or anti-hypnotic properties of the compounds of the present invention. The rats are placed in individual cages and are given an injection of barbital (170 mg/kg IP). The duration of sleep is then measured for 4 hours after the injection of barbital, determined on the basis of loss of the righting reflex. The compounds of the invention or their carriers are administered by the oral route 30 minutes before the administration of barbital.

Sprague-Dawley rat = assay: Object recognition in the Sprague-Dawley rat; settings: 3 mg/kg PO 60 minutes before each session, second session 24 hours later
From the text: The object recognition test in the Sprague-Dawley rat (Behav. Brain Res., 1988, 31, 47-59) is based on the spontaneous exploratory activity of the animal and has the characteristics of episodic memory in humans. This memory test is sensitive to ageing (Eur. J. Pharmacol., 1997, 325, 173-180) and to cholinergic dysfunctions (Pharm. Biochem. Behav. 1996, 53(2), 277-283) and is based on the differences in the exploration of 2 objects of fairly similar shape—one familiar, the other new. Prior to the test, the animals are habituated to the environment (an enclosure without an object). In the course of a first session, the rats are placed (3 minutes) in the enclosure, in which there are 2 identical objects. The duration of exploration is measured for each object. In the course of the second session (3 minutes), 24 hours later, 1 of the 2 objects is replaced by a new object. The duration of exploration is measured for each object. The assessment criterion is the difference, Delta, expressed in seconds, between the exploration times for the new object and for the familiar object in the course of the second session.

Wistar rat [2] = assay: Social recognition in the Wistar rat; settings: second encounter after 2 hours
From the text: Initially described in 1982 (J. Comp. Physiol., 1982, 96, 1000-1006), the social recognition test has subsequently been proposed by various authors (Psychopharmacology, 1987, 91, 363-368; Psychopharmacology, 1989, 97, 262-268) for studying the mnemocognitive effects of new compounds. The test is based on the natural expression of the olfactory memory of the rat and its natural tendency to forget and allows evaluation of memorisation, by recognition of a young congeneric animal, by an adult rat. A young rat (21 days), taken at random, is placed for 5 minutes in the cage housing an adult rat. With the aid of a video device, the experimenter observes the social recognition behaviour of the adult rat and measures its overall duration. The young rat is then removed from the adult rat's cage and is placed in its own cage until the second introduction. The adult rat is given the compound under test by the intraperitoneal route and, after 2 hours, is again brought into the presence (5 minutes) of the young rat. The social recognition behaviour is then observed again and its duration measured. The assessment criterion is the difference (T2−T1), expressed in seconds, between the “recognition” times of the 2 encounters.

NMRI mouse = assay: Tail suspension test in the NMRI mouse; settings: 10 mg/kg IP, 24 hours and 30 minutes before suspension, 6 minutes
Procedure: The tail suspension test in the mouse (Porsolt et al., Arch. Int. Pharmacodyn., 1987, 288, 11) enables detection of psychopharmacological properties of compounds. NMRI mice are suspended by the tail, with the aid of a piece of adhesive tape, from a hook for 6 minutes: the immobility time is measured automatically with the aid of movement sensors. The animals are treated, by the intraperitoneal route, with the compounds of the invention or their carriers 24 hours and 30 minutes before they are suspended.

[3] = test system: extracellular levels of dopamine; assay: Intracerebral microdialysis in the striatum of the awake rat; settings: 10 mg/kg i.p., striatum microdialysate, awake Wistar rat
Procedure: Intracerebral microdialysis in the awake rat makes it possible to assess the influence of a compound on the release of neurotransmitters such as dopamine into the extracellular space of small cerebral structures, especially the striatum.
This technique is carried out in two steps: a surgery step (stereotaxic implantation of a cannula-guide carried out on the anaesthetised animal) and a microdialysis step carried out on the awake animal (collection of samples of extracellular cerebral liquid). Male rats of the Wistar strain (280-320 g) are anaesthetised and placed in a stereotaxic apparatus. A guide cannula is implanted in the striatum of the animals according to the following stereotaxic coordinates: antero-posteriority −1 mm, laterality +2.8 mm, depth −3 mm, relative to the bregma, according to the atlas of Paxinos and Watson (1996). One week after the surgery, a microdialysis probe (CMA11, length 4 mm, Phymep) is inserted into the guide cannula. The animals are placed in experimentation cages and the to probe inlet is connected to a pump continuously perfusing artificial cerebrospinal fluid (flow rate 1 μl/min). […] The extracellular levels of dopamine are assessed in each microdialysate using a liquid chromatographic technique coupled with electrochemical detection. The values are expressed as the mean±SEM relative to the baseline values (reference 100%).

Cl.NC(=O)c1ccc(OCCCN2C[C@H]3CC[C@H]3C2)cc1 [Example 1, 4-{3-[(1R,5S)-3-Azabicyclo[3.2.0]hept-3-yl]-propoxy}benzamide hydrochloride]
duration of reduction in power of the slow delta waves (awake Wistar rat): 120 min | effect on power of the slow delta waves (1-4 Hz) (awake Wistar rat): significant reduction | reduction of the duration of sleeping caused by barbital (Wistar rat [1]): −81% | difference, Delta, between exploration times for the new and the familiar object (Sprague-Dawley rat): ~8 s | difference (T2−T1) between recognition times (Wistar rat [2]; 1 mg/kg IP): 24 s | difference (T2−T1) between recognition times (Wistar rat [2]; 3 mg/kg IP): 36 s | increase in the immobility time (NMRI mouse): 119% | increase in endogenous cerebral concentrations of dopamine (in comparison with basal values) [3]: +123%
